system: NCI-H292 lung cancer cells; test: FDA drug screening, complete media vs cholesterol-free media without statin (TABLE 1); format: cell-based, human; conditions: not given

Structure (SMILES) | Cholesterol-free | Complete | Difference
O=C(O)CCCC[C@@H]1SC[C@@H]2NC(=O)N[C@@H]21 [Biotin] | 1.067 | 0.6067 | −0.46

same assay, conditions: Complete minus Cholesterol-free; >0 enhanced anti-cancer activity, about 0 neutral, <0 antagonist

Structure (SMILES) | Difference
Cn1cnc2c(F)c(Nc3ccc(Br)cc3F)c(C(=O)NOCCO)cc21 [Binimetinib] | 0.01
CC(=O)Oc1ccc(C(c2ccc(OC(C)=O)cc2)c2ccccn2)cc1 [Bisacodyl] | −0.04
CCN1CCN(c2cc(-c3ccc(F)cc3)c3c(n2)CCCCCC3)CC1 [Blonanserin] | −0.06
CC(C)(C)NC(=O)N[C@H](C(=O)N1C[C@H]2[C@@H]([C@H]1C(=O)NC(CC1CCC1)C(=O)C(N)=O)C2(C)C)C(C)(C)C (some centres unmarked) [Boceprevir] | −0.30
CC(C)C[C@H](NC(=O)[C@H](Cc1ccccc1)NC(=O)c1cnccn1)B(O)O [Bortezomib] | 0.00
COc1ccccc1Oc1c(NS(=O)(=O)c2ccc(C(C)(C)C)cc2)nc(-c2ncccn2)nc1OCCO [Bosentan] | −0.05
COc1cc(Nc2c(C#N)cnc3cc(OCCCN4CCN(C)CC4)c(OC)cc23)c(Cl)cc1Cl [Bosutinib] | 0.05
Brc1c(NC2=NCCN2)ccc2nccnc12 [Brimonidine] | −0.01
CCN[C@H]1CN(CCCOC)S(=O)(=O)c2sc(S(N)(=O)=O)cc21 [Brinzolamide] | 0.00

same assay, conditions: Complete minus Cholesterol-free; […]

Structure (SMILES) | Difference
CC(C)C(Br)C(=O)NC(N)=O (centres unmarked) [Bromisoval] | −0.47

same assay, conditions: Complete minus Cholesterol-free; greater than 0 enhanced anti-cancer activity, about 0 neutral, below 0 antagonist

Structure (SMILES) | Difference
Oc1c(Cl)cc(Cl)cc1Sc1cc(Cl)cc(Cl)c1O [Bithionol] | −0.09

same assay, conditions: NCI-H292 cells in cholesterol-free media without statin

Structure (SMILES) | Cholesterol-free
CC(C)C(Br)C(=O)NC(N)=O (centres unmarked) [Bromisoval] | 1.334

same assay, conditions: NCI-H292 cells in complete media

Structure (SMILES) | Complete
CC(C)C(Br)C(=O)NC(N)=O (centres unmarked) [Bromisoval] | 0.8605

same assay, conditions: NCI-H292 cells, FDA drug library screen, cholesterol-free media without statin

Structure (SMILES) | Cholesterol-free
Oc1c(Cl)cc(Cl)cc1Sc1cc(Cl)cc(Cl)c1O [Bithionol] | 0.9314

same assay, conditions: NCI-H292 cells, FDA drug library screen, complete media

Structure (SMILES) | Complete
Oc1c(Cl)cc(Cl)cc1Sc1cc(Cl)cc(Cl)c1O [Bithionol] | 0.8442

same assay, conditions: NCI-H292 cells, cholesterol-free media without statin

Structure (SMILES) | Cholesterol-free
CC(C)(C)NC(=O)N[C@H](C(=O)N1C[C@H]2[C@@H]([C@H]1C(=O)NC(CC1CCC1)C(=O)C(N)=O)C2(C)C)C(C)(C)C (some centres unmarked) [Boceprevir] | 1.3

same assay, conditions: NCI-H292 cells, cholesterol-free media without statin, FDA drug library screen

Structure (SMILES) | Cholesterol-free
Cn1cnc2c(F)c(Nc3ccc(Br)cc3F)c(C(=O)NOCCO)cc21 [Binimetinib] | 0.1731
CC(=O)Oc1ccc(C(c2ccc(OC(C)=O)cc2)c2ccccn2)cc1 [Bisacodyl] | 0.799
CCN1CCN(c2cc(-c3ccc(F)cc3)c3c(n2)CCCCCC3)CC1 [Blonanserin] | 1.144
CC(C)C[C@H](NC(=O)[C@H](Cc1ccccc1)NC(=O)c1cnccn1)B(O)O [Bortezomib] | 0.006863
COc1ccccc1Oc1c(NS(=O)(=O)c2ccc(C(C)(C)C)cc2)nc(-c2ncccn2)nc1OCCO [Bosentan] | 1.038
COc1cc(Nc2c(C#N)cnc3cc(OCCCN4CCN(C)CC4)c(OC)cc23)c(Cl)cc1Cl [Bosutinib] | 0.4091
Brc1c(NC2=NCCN2)ccc2nccnc12 [Brimonidine] | 0.9724
CCN[C@H]1CN(CCCOC)S(=O)(=O)c2sc(S(N)(=O)=O)cc21 [Brinzolamide] | 0.8738

same assay, conditions: NCI-H292 cells, complete media

Structure (SMILES) | Complete
CC(C)(C)NC(=O)N[C@H](C(=O)N1C[C@H]2[C@@H]([C@H]1C(=O)NC(CC1CCC1)C(=O)C(N)=O)C2(C)C)C(C)(C)C (some centres unmarked) [Boceprevir] | 1.001

same assay, conditions: NCI-H292 cells, complete media, FDA drug library screen

Structure (SMILES) | Complete
Cn1cnc2c(F)c(Nc3ccc(Br)cc3F)c(C(=O)NOCCO)cc21 [Binimetinib] | 0.1825
CC(=O)Oc1ccc(C(c2ccc(OC(C)=O)cc2)c2ccccn2)cc1 [Bisacodyl] | 0.7553
CCN1CCN(c2cc(-c3ccc(F)cc3)c3c(n2)CCCCCC3)CC1 [Blonanserin] | 1.088
CC(C)C[C@H](NC(=O)[C@H](Cc1ccccc1)NC(=O)c1cnccn1)B(O)O [Bortezomib] | 0.00697
COc1ccccc1Oc1c(NS(=O)(=O)c2ccc(C(C)(C)C)cc2)nc(-c2ncccn2)nc1OCCO [Bosentan] | 0.9904
COc1cc(Nc2c(C#N)cnc3cc(OCCCN4CCN(C)CC4)c(OC)cc23)c(Cl)cc1Cl [Bosutinib] | 0.4542
Brc1c(NC2=NCCN2)ccc2nccnc12 [Brimonidine] | 0.9659
CCN[C@H]1CN(CCCOC)S(=O)(=O)c2sc(S(N)(=O)=O)cc21 [Brinzolamide] | 0.876

system: NCI-H292 lung cancer cells; test: FDA drug screening, complete media vs cholesterol-free media with simvastatin (TABLE 2); format: cell-based, human; conditions: not given

Structure (SMILES) | Cholesterol-free media + simvastatin (0.04 μM) | Complete Media | Difference
O=C(O)CCCC[C@@H]1SC[C@@H]2NC(=O)N[C@@H]21 [Biotin] | 1.06 | 0.9767 | −0.08

same assay, conditions: NCI-H292 cells, FDA drug library screen, cholesterol-free media with simvastatin 0.04 μM

Structure (SMILES) | Cholesterol-free media + simvastatin (0.04 μM)
Cn1cnc2c(F)c(Nc3ccc(Br)cc3F)c(C(=O)NOCCO)cc21 [Binimetinib] | 0.4887
CC(C)(C)NC(=O)N[C@H](C(=O)N1C[C@H]2[C@@H]([C@H]1C(=O)NC(CC1CCC1)C(=O)C(N)=O)C2(C)C)C(C)(C)C (some centres unmarked) [Boceprevir] | 1.494

same assay, conditions: NCI-H292 cells, FDA drug library screen, complete media

Structure (SMILES) | Complete Media
Cn1cnc2c(F)c(Nc3ccc(Br)cc3F)c(C(=O)NOCCO)cc21 [Binimetinib] | 0.381
CC(C)(C)NC(=O)N[C@H](C(=O)N1C[C@H]2[C@@H]([C@H]1C(=O)NC(CC1CCC1)C(=O)C(N)=O)C2(C)C)C(C)(C)C (some centres unmarked) [Boceprevir] | 1.414

same assay, conditions: NCI-H292 cells, FDA library drug in cholesterol-free media with simvastatin 0.04 μM

Structure (SMILES) | Cholesterol-free media + simvastatin (0.04 μM)
Oc1c(Cl)cc(Cl)cc1Sc1cc(Cl)cc(Cl)c1O [Bithionol] | 2.228

same assay, conditions: NCI-H292 cells, FDA library drug in complete media

Structure (SMILES) | Complete Media
Oc1c(Cl)cc(Cl)cc1Sc1cc(Cl)cc(Cl)c1O [Bithionol] | 1.353

same assay, conditions: NCI-H292 cells, cholesterol-free media with simvastatin 0.04 μM; FDA drug library screen (TABLE 2)

Structure (SMILES) | Cholesterol-free media + simvastatin (0.04 μM)
CC(=O)Oc1ccc(C(c2ccc(OC(C)=O)cc2)c2ccccn2)cc1 [Bisacodyl] | 0.934
CC(C)C[C@H](NC(=O)[C@H](Cc1ccccc1)NC(=O)c1cnccn1)B(O)O [Bortezomib] | 0.003233
COc1ccccc1Oc1c(NS(=O)(=O)c2ccc(C(C)(C)C)cc2)nc(-c2ncccn2)nc1OCCO [Bosentan] | 1.122

same assay, conditions: NCI-H292 cells, cholesterol-free media with simvastatin 0.04 μM; cell growth value in FDA drug screen

Structure (SMILES) | Cholesterol-free media + simvastatin (0.04 μM)
COc1cc(Nc2c(C#N)cnc3cc(OCCCN4CCN(C)CC4)c(OC)cc23)c(Cl)cc1Cl [Bosutinib] | 0.2873
CCN[C@H]1CN(CCCOC)S(=O)(=O)c2sc(S(N)(=O)=O)cc21 [Brinzolamide] | 1.105

same assay, conditions: NCI-H292 cells, complete media; FDA drug library screen (TABLE 2)

Structure (SMILES) | Complete Media
CC(=O)Oc1ccc(C(c2ccc(OC(C)=O)cc2)c2ccccn2)cc1 [Bisacodyl] | 0.9483
CCN1CCN(c2cc(-c3ccc(F)cc3)c3c(n2)CCCCCC3)CC1 [Blonanserin] | 0.8939
CC(C)C[C@H](NC(=O)[C@H](Cc1ccccc1)NC(=O)c1cnccn1)B(O)O [Bortezomib] | −0.017
COc1ccccc1Oc1c(NS(=O)(=O)c2ccc(C(C)(C)C)cc2)nc(-c2ncccn2)nc1OCCO [Bosentan] | 1.122

same assay, conditions: NCI-H292 cells, complete media; cell growth value in FDA drug screen

Structure (SMILES) | Complete Media
COc1cc(Nc2c(C#N)cnc3cc(OCCCN4CCN(C)CC4)c(OC)cc23)c(Cl)cc1Cl [Bosutinib] | 0.3524
CCN[C@H]1CN(CCCOC)S(=O)(=O)c2sc(S(N)(=O)=O)cc21 [Brinzolamide] | 1.197

same assay, conditions: NCI-H292 cells, drug in cholesterol-free media with simvastatin 0.04 μM

Structure (SMILES) | Cholesterol-free media + simvastatin (0.04 μM)
Brc1c(NC2=NCCN2)ccc2nccnc12 [Brimonidine] | 0.9016
CC(C)C(Br)C(=O)NC(N)=O (centres unmarked) [Bromisoval] | 1.086

same assay, conditions: NCI-H292 cells, drug in complete media

Structure (SMILES) | Complete Media
Brc1c(NC2=NCCN2)ccc2nccnc12 [Brimonidine] | 0.7279
CC(C)C(Br)C(=O)NC(N)=O (centres unmarked) [Bromisoval] | 0.9233

same assay, conditions: complete media minus cholesterol-free media + simvastatin (0.04 μM); >0 enhanced anti-cancer activity, about 0 neutral, <0 antagonist

Structure (SMILES) | Difference
CC(=O)Oc1ccc(C(c2ccc(OC(C)=O)cc2)c2ccccn2)cc1 [Bisacodyl] | 0.01
CCN1CCN(c2cc(-c3ccc(F)cc3)c3c(n2)CCCCCC3)CC1 [Blonanserin] | −0.05
CC(C)C[C@H](NC(=O)[C@H](Cc1ccccc1)NC(=O)c1cnccn1)B(O)O [Bortezomib] | −0.02
COc1ccccc1Oc1c(NS(=O)(=O)c2ccc(C(C)(C)C)cc2)nc(-c2ncccn2)nc1OCCO [Bosentan] | 0.00

same assay, conditions: complete media minus cholesterol-free media + simvastatin; >0 enhanced anti-cancer activity, about 0 neutral, <0 antagonist

Structure (SMILES) | Difference
COc1cc(Nc2c(C#N)cnc3cc(OCCCN4CCN(C)CC4)c(OC)cc23)c(Cl)cc1Cl [Bosutinib] | 0.07
CCN[C@H]1CN(CCCOC)S(=O)(=O)c2sc(S(N)(=O)=O)cc21 [Brinzolamide] | 0.09

same assay, conditions: complete media vs cholesterol-free media + simvastatin (0.04 μM); >0 enhanced anti-cancer activity, about 0 neutral, <0 antagonist

Structure (SMILES) | Difference
Cn1cnc2c(F)c(Nc3ccc(Br)cc3F)c(C(=O)NOCCO)cc21 [Binimetinib] | −0.11
Oc1c(Cl)cc(Cl)cc1Sc1cc(Cl)cc(Cl)c1O [Bithionol] | −0.88
CC(C)(C)NC(=O)N[C@H](C(=O)N1C[C@H]2[C@@H]([C@H]1C(=O)NC(CC1CCC1)C(=O)C(N)=O)C2(C)C)C(C)(C)C (some centres unmarked) [Boceprevir] | −0.08
Brc1c(NC2=NCCN2)ccc2nccnc12 [Brimonidine] | −0.17

same assay, conditions: complete media vs cholesterol-free media + simvastatin (0.04 μM); […]

Structure (SMILES) | Difference
CC(C)C(Br)C(=O)NC(N)=O (centres unmarked) [Bromisoval] | −0.16
